Test results published in ChEMBL document CHEMBL1777738, “3-Cyano-6-(5-methyl-3-pyrazoloamino)pyridines: selective Aurora A kinase inhibitors” (Bioorg Med Chem Lett, 2010).
Each block holds one molecule with its values, some of them ahead of it.

What was measured:
Aurora kinase A = biological target: T1, Aurora kinase A (Homo sapiens, UniProt O14965)
T1 sequence (O14965 whole entry): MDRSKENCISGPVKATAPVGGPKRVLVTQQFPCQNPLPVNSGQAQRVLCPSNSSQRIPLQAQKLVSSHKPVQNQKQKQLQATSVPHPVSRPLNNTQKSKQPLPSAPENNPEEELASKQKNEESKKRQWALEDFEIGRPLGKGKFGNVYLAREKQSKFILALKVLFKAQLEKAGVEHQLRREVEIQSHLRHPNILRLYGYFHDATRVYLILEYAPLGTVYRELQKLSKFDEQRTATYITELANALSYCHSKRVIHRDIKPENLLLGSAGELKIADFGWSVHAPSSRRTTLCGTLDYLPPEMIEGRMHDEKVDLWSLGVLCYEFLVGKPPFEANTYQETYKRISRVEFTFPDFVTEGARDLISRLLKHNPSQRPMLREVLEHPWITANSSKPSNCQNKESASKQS
Description: Inhibition of phosphotransferase activity of recombinant aurora A expressed in HeLa cells

[1] = Intrinsic clearance in human hepatic microsomes; assay type: ADME, Liver, Microsome
HCT-116 [2] = test: Antitumor activity against human HCT116 cells xenografted in mouse assessed as tumor growth inhibition at 30 mg/kg, po qd for 14 days; assay type: functional; details: HCT-116, 336 h
[3] = Drug level in rat serum at 30 mg/kg, po after 24 hrs; assay type: ADME, organism-based; parameters: dose 30 mg/kg, route oral; details: read-out: Drug uptake
[4] = biological target: Tyrosine-protein kinase Yes (Homo sapiens, UniProt P07947); test: Inhibition of Yes
Aurora kinase B = Aurora kinase B (Homo sapiens, UniProt Q96GD4); test: Inhibition of aurora B
HCT-116 [5] = test: Antiproliferative activity against human HCT116 cells; assay type: functional, cell-based
Mus musculus = test: Toxicity in human HCT116 cells xenografted mouse assessed as reduction in body weight at 30 mg/kg, po qd for 14 days; assay type: organism-based, HCT-116; parameters: dose 30 mg/kg, route oral; details: in vivo, 336 h
[6] = Half life in rat at 30 mg/kg, po; assay type: ADME, organism-based; parameters: dose 30 mg/kg, route oral; details: in vivo
[7] = biological target: Proto-oncogene tyrosine-protein kinase Src (Homo sapiens, UniProt P12931); test: Inhibition of c-SRC
[8] = biological target: Tyrosine-protein kinase Fyn (Homo sapiens, UniProt P06241); test: Inhibition of Fyn
[9] = Tmax in rat at 30 mg/kg, po; assay type: ADME, organism-based; parameters: dose 30 mg/kg, route oral; details: in vivo
[10] = Cmax in rat at 30 mg/kg, po; assay type: ADME, organism-based; parameters: dose 30 mg/kg, route oral; details: in vivo
HCT-116 [11] = test: Antitumor activity against human HCT116 cells xenografted in mouse assessed as tumor growth inhibition at 30 mg/kg, ip qd for 14 days
HCT-116 [12] = test: Antitumor activity against human HCT116 cells xenografted in mouse assessed as tumor growth inhibition at 100 mg/kg, ip qd for 14 days

Chain of Aurora kinase B (Q96GD4 whole entry): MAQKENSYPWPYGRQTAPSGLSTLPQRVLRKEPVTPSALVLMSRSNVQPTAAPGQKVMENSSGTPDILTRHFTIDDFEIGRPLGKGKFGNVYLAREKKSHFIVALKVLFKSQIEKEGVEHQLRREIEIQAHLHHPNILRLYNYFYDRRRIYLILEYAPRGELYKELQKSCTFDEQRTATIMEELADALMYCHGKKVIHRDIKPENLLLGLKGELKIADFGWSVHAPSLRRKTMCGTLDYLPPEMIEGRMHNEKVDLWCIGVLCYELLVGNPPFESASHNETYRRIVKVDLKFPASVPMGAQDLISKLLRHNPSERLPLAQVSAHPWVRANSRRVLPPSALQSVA
Chain of Proto-oncogene tyrosine-protein kinase Src (P12931 2-536 limits assumed): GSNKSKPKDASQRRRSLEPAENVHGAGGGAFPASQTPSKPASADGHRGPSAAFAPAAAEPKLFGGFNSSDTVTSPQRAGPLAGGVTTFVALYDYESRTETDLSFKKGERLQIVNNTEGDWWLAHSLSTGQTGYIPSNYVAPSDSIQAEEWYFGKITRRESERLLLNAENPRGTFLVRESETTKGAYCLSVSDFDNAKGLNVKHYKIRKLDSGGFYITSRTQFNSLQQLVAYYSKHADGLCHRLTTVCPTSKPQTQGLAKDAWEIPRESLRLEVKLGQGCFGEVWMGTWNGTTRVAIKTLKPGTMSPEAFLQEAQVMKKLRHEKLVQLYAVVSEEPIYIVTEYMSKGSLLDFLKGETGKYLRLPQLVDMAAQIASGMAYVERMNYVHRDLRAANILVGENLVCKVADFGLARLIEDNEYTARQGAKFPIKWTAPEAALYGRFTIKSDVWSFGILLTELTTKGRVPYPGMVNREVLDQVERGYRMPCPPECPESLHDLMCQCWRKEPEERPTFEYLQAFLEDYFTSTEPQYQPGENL
Chain of Tyrosine-protein kinase Yes (P07947 whole entry): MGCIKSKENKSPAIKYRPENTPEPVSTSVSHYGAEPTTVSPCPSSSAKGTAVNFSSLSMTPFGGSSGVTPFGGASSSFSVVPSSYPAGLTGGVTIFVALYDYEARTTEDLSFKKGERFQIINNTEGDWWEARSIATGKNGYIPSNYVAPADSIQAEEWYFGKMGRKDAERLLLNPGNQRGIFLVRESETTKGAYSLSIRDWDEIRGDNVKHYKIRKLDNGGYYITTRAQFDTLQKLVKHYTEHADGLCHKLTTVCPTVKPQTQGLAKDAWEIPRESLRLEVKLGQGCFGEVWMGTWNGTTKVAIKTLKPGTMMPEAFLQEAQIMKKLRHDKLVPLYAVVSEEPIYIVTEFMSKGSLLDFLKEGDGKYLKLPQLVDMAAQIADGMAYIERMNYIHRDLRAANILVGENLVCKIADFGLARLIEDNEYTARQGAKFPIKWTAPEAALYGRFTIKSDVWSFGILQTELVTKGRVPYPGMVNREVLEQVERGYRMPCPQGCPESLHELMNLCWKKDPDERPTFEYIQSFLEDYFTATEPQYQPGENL
Chain of Tyrosine-protein kinase Fyn (P06241 whole entry): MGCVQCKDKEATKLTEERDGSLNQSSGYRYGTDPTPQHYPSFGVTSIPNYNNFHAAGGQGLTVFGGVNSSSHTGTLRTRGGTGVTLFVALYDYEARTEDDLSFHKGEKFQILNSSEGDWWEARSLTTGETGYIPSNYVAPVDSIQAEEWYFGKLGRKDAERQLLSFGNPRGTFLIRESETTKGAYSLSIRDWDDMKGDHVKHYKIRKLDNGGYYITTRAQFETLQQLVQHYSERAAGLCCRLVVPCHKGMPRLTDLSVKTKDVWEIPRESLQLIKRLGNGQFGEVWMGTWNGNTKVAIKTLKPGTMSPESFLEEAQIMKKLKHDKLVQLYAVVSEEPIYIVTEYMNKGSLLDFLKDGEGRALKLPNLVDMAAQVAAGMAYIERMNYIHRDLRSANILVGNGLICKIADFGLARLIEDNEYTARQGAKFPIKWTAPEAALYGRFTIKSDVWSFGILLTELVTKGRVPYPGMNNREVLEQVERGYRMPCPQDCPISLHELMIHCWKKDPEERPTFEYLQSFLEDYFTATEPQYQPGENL

Ki (Aurora kinase A): 28 nM
SMILES: Cc1cc(Nc2cc(C)c(C#N)c(SCCCCCCN)n2)[nH]n1

Ki (Aurora kinase A): 3.8 nM
SMILES: CCCCCCSc1nc(Nc2cc(C)n[nH]2)cc(C)c1C#N

Ki (Aurora kinase A): 4.5 nM
SMILES: Cc1cc(Nc2cc(C)c(C#N)c(NCCCCCCO)n2)[nH]n1

Ki (Aurora kinase A): 2.3 nM
SMILES: Cc1cc(Nc2cc(C)c(C#N)c(NCCCCCC(C)(C)O)n2)n[nH]1

concentration at 24 h [3]: 52 nM | Ki [4]: 24 nM | Ki (Aurora kinase B): 101 nM | IC50 (HCT-116 [5]): 115 nM | Ki (Aurora kinase A): 1.2 nM | half-life [6]: 3.3 h | Ki [7]: 26 nM | Ki [8]: 28 nM | Tmax [9]: 1.2 h | Cmax [10]: 4930 nM | CL [1]: 70 µL/min/mg
SMILES: Cc1cc(Nc2cc(C)c(C#N)c(NC(C)CCCC(C)(C)O)n2)n[nH]1.Cl (racemic)
inhibition in vivo at 30 mg/kg (HCT-116 [2]): 59% | Activity (Mus musculus): Non-toxic

Ki (Aurora kinase A): 5.3 nM
SMILES: CC(=O)Nc1ccc(Sc2nc(Nc3cc(C)n[nH]3)cc(C)c2C#N)cc1

IC50 (HCT-116 [5]): 52 nM | Ki (Aurora kinase A): 0.59 nM | CL [1]: 50 µL/min/mg
SMILES: Cc1cc(Nc2cc(C)c(C#N)c(N[C@@H](C)CCCC(C)(C)O)n2)[nH]n1

The next lines start with the molecule.

SMILES: Cc1cc(Nc2cc(C)c(C#N)c(SCCCCCC(C)(C)O)n2)[nH]n1
Ki (Aurora kinase A): 9.7 nM

SMILES: Cc1cc(Nc2cc(C)c(C#N)c(N[C@H](C)CCCC(C)(C)O)n2)n[nH]1
Ki (Aurora kinase A): 66 nM | CL [1]: 110 µL/min/mg

SMILES: Cc1cc(Nc2cc(C)c(C#N)c(NCCO)n2)[nH]n1
Ki (Aurora kinase A): 20 nM

SMILES: Cc1cc(Nc2cc(-c3ccccc3)c(C#N)c(Sc3ccc(NC(=O)C(C)C)cc3)n2)n[nH]1
Ki (Aurora kinase A): 310 nM

SMILES: Cc1cc(Nc2cc(C)c(C#N)c(SCCCCCCO)n2)[nH]n1
Ki (Aurora kinase A): 8.5 nM

SMILES: Cc1cc(Nc2cc(N3CCN(C)CC3)nc(Sc3ccc(NC(=O)C4CC4)cc3)n2)n[nH]1
growth inhibition (GI) (HCT-116 [11]): 60% | growth inhibition (GI) (HCT-116 [12]): 68%
